Source: patent US20250011287A1, “FLUORINE-CONTAINING COMPOUND AND CONTRAST AGENT” (TDK CORPORATION, priority 2021, published 2025)

Experiments:
[1] = 19F spin-spin relaxation time (T2) measurement by CPMG method, 500 MHz NMR; type: physicochemical; settings: 5 mM/CDCl3, 36° C.
Experimental: (§1) For each of the compounds of Examples 1 to 10, Comparative Example 1, and Comparative Example 2 obtained as above, a ^19F spin-lattice relaxation time (T1) and a ^19F spin-spin relaxation time (T2) were measured by the following method.
The compound was dissolved in a deuterated chloroform solution at a concentration of 5 mM, and the transverse relaxation time (T2) of the ^19F nucleus was measured using a 500 MHz NMR device by a Carr-Purcell-Meiboom-Gill (CPMG) method under the conditions described below.
• NMR device: JNM-ECA500 (manufactured by JOEL) • Measurement temperature: 36° C. • relaxation_delay: 10 [s] • tau_step: 1 [ms] • relaxation_delay: 1, 2, 3, 4, 5, 6, 8, 9, 10, 25, 50, 75 [ms], 0.10, 0.25, 0.50, 0.75, 1.00, 1.25, 1.50, 1.75, 2.00 [s] • Accumulated number of times: 128 times

[2] = 19F spin-lattice relaxation time (T1) measurement by inversion recovery method, 500 MHz NMR; type: physicochemical; settings: 5 mM/CDCl3, 36° C.
Experimental: as §1
The compound was dissolved in a deuterated chloroform solution at a concentration of 5 mM, and the longitudinal relaxation time (T1) of the ^19F nucleus was measured using a 500 MHz NMR device by an inversion recovery method under the conditions described below.
• NMR device: JNM-ECA500 (manufactured by JOEL) • Measurement temperature: 36° C. • Pulse sequence: double_pulse • relaxation_delay: 10 [s] • tau_interval: 4, 3, 2, 1, 0.8, 0.6, 0.4, 0.2, 0.1 [s], 80, 60, 40, 20, 10, 8, 6, 4, 2 [ms] • Accumulated number of times: 128 times

Molecule: 1,3-Bis(2,2,2-trifluoro-1,1-bis(trifluoromethyl(ethoxy)-2,2-bis((2,2,2-trifluoro-1,1-bis(trifluoromethyl)ethoxy)methyl)propane [Compound A1, reference compound]
- T2 (19F spin-spin relaxation time) [1]: 1.270 s
- T1 (19F spin-lattice relaxation time) [2]: 1.380 s

Molecule: 4-(3-((1,1,1,3,3,3-hexafluoro-2-(trifluoromethyl)propan-2-yl)oxy)-2,2-bis(((1,1,1,3,3,3-hexafluoro-2-(trifluoromethyl)propan-2-yl)oxy)methyl)propoxy)-2,2,6,6-tetramethylpiperidin-1-oxyl [Compound 11]
- T2 (19F spin-spin relaxation time) [1]: 0.057 s
- T1 (19F spin-lattice relaxation time) [2]: 0.077 s

Molecule: 4-(3-((1,1,1,3,3,3-hexafluoro-2-(trifluoromethyl)propan-2-yl)oxy)-2-(((1,1,1,3,3,3-hexafluoro-2-(trifluoromethyl)propan-2-yl)oxy)methyl)-2-methylpropoxy)-2,2,6,6-tetramethylpiperidin-1-oxyl [Compound 13]
- T2 (19F spin-spin relaxation time) [1]: 0.050 s
- T1 (19F spin-lattice relaxation time) [2]: 0.071 s

Molecule: CCC1(CC)CC(OCC(COC(C(F)(F)F)(C(F)(F)F)C(F)(F)F)(COC(C(F)(F)F)(C(F)(F)F)C(F)(F)F)COC(C(F)(F)F)(C(F)(F)F)C(F)(F)F)CC(CC)(CC)N1O [Compound 12, 4-(3-((1,1,1,3,3,3-hexafluoro-2-(trifluoromethyl)propan-2-yl)oxy)-2,2-bis(((1,1,1,3,3,3-hexafluoro-2-(trifluoromethyl)propan-2-yl)oxy)methyl)propoxy)-2,2,6,6-tetraethylpiperidin-1-oxyl]
- T2 (19F spin-spin relaxation time) [1]: 0.049 s
- T1 (19F spin-lattice relaxation time) [2]: 0.070 s

Molecule: CC1(C)CC(OCCOCC(COC(C(F)(F)F)(C(F)(F)F)C(F)(F)F)(COC(C(F)(F)F)(C(F)(F)F)C(F)(F)F)COC(C(F)(F)F)(C(F)(F)F)C(F)(F)F)CC(C)(C)N1O [Compound 14]
- T2 (19F spin-spin relaxation time) [1]: 0.101 s
- T1 (19F spin-lattice relaxation time) [2]: 0.153 s

Molecule: CCC1(CC)CC(OCCOCC(COC(C(F)(F)F)(C(F)(F)F)C(F)(F)F)(COC(C(F)(F)F)(C(F)(F)F)C(F)(F)F)COC(C(F)(F)F)(C(F)(F)F)C(F)(F)F)CC(CC)(CC)N1O [Compound 15]
- T2 (19F spin-spin relaxation time) [1]: 0.092 s
- T1 (19F spin-lattice relaxation time) [2]: 0.145 s

Molecule: CC1(C)CC(OCCCOCC(COC(C(F)(F)F)(C(F)(F)F)C(F)(F)F)(COC(C(F)(F)F)(C(F)(F)F)C(F)(F)F)COC(C(F)(F)F)(C(F)(F)F)C(F)(F)F)CC(C)(C)N1O [Compound 16]
- T2 (19F spin-spin relaxation time) [1]: 0.120 s
- T1 (19F spin-lattice relaxation time) [2]: 0.183 s

Molecule: CCC1(CC)CC(OCCCOCC(COC(C(F)(F)F)(C(F)(F)F)C(F)(F)F)(COC(C(F)(F)F)(C(F)(F)F)C(F)(F)F)COC(C(F)(F)F)(C(F)(F)F)C(F)(F)F)CC(CC)(CC)N1O [Compound 17]
- T2 (19F spin-spin relaxation time) [1]: 0.108 s
- T1 (19F spin-lattice relaxation time) [2]: 0.172 s

Molecule: CC1(C)CC(OCCCCCCOCC(COC(C(F)(F)F)(C(F)(F)F)C(F)(F)F)(COC(C(F)(F)F)(C(F)(F)F)C(F)(F)F)COC(C(F)(F)F)(C(F)(F)F)C(F)(F)F)CC(C)(C)N1O [Compound 18]
- T2 (19F spin-spin relaxation time) [1]: 0.274 s
- T1 (19F spin-lattice relaxation time) [2]: 0.428 s

Molecule: CC1(C)CC(OCCCCCCCCCOCC(COC(C(F)(F)F)(C(F)(F)F)C(F)(F)F)(COC(C(F)(F)F)(C(F)(F)F)C(F)(F)F)COC(C(F)(F)F)(C(F)(F)F)C(F)(F)F)CC(C)(C)N1O [Compound 19]
- T2 (19F spin-spin relaxation time) [1]: 0.332 s
- T1 (19F spin-lattice relaxation time) [2]: 0.520 s

Molecule: CC1(C)CC(OCCCCCCCCCCCCOCC(COC(C(F)(F)F)(C(F)(F)F)C(F)(F)F)(COC(C(F)(F)F)(C(F)(F)F)C(F)(F)F)COC(C(F)(F)F)(C(F)(F)F)C(F)(F)F)CC(C)(C)N1O [Compound 20]
- T2 (19F spin-spin relaxation time) [1]: 0.390 s
- T1 (19F spin-lattice relaxation time) [2]: 0.612 s
